The values that follow come from US8410112B2, “Compounds useful as inhibitors of ATR kinase” (Vertex Pharmaceuticals Incorporated, priority 2008, dated 2013).

Bounds are passed on as bounds.

T1 sequence (Q13535 whole entry): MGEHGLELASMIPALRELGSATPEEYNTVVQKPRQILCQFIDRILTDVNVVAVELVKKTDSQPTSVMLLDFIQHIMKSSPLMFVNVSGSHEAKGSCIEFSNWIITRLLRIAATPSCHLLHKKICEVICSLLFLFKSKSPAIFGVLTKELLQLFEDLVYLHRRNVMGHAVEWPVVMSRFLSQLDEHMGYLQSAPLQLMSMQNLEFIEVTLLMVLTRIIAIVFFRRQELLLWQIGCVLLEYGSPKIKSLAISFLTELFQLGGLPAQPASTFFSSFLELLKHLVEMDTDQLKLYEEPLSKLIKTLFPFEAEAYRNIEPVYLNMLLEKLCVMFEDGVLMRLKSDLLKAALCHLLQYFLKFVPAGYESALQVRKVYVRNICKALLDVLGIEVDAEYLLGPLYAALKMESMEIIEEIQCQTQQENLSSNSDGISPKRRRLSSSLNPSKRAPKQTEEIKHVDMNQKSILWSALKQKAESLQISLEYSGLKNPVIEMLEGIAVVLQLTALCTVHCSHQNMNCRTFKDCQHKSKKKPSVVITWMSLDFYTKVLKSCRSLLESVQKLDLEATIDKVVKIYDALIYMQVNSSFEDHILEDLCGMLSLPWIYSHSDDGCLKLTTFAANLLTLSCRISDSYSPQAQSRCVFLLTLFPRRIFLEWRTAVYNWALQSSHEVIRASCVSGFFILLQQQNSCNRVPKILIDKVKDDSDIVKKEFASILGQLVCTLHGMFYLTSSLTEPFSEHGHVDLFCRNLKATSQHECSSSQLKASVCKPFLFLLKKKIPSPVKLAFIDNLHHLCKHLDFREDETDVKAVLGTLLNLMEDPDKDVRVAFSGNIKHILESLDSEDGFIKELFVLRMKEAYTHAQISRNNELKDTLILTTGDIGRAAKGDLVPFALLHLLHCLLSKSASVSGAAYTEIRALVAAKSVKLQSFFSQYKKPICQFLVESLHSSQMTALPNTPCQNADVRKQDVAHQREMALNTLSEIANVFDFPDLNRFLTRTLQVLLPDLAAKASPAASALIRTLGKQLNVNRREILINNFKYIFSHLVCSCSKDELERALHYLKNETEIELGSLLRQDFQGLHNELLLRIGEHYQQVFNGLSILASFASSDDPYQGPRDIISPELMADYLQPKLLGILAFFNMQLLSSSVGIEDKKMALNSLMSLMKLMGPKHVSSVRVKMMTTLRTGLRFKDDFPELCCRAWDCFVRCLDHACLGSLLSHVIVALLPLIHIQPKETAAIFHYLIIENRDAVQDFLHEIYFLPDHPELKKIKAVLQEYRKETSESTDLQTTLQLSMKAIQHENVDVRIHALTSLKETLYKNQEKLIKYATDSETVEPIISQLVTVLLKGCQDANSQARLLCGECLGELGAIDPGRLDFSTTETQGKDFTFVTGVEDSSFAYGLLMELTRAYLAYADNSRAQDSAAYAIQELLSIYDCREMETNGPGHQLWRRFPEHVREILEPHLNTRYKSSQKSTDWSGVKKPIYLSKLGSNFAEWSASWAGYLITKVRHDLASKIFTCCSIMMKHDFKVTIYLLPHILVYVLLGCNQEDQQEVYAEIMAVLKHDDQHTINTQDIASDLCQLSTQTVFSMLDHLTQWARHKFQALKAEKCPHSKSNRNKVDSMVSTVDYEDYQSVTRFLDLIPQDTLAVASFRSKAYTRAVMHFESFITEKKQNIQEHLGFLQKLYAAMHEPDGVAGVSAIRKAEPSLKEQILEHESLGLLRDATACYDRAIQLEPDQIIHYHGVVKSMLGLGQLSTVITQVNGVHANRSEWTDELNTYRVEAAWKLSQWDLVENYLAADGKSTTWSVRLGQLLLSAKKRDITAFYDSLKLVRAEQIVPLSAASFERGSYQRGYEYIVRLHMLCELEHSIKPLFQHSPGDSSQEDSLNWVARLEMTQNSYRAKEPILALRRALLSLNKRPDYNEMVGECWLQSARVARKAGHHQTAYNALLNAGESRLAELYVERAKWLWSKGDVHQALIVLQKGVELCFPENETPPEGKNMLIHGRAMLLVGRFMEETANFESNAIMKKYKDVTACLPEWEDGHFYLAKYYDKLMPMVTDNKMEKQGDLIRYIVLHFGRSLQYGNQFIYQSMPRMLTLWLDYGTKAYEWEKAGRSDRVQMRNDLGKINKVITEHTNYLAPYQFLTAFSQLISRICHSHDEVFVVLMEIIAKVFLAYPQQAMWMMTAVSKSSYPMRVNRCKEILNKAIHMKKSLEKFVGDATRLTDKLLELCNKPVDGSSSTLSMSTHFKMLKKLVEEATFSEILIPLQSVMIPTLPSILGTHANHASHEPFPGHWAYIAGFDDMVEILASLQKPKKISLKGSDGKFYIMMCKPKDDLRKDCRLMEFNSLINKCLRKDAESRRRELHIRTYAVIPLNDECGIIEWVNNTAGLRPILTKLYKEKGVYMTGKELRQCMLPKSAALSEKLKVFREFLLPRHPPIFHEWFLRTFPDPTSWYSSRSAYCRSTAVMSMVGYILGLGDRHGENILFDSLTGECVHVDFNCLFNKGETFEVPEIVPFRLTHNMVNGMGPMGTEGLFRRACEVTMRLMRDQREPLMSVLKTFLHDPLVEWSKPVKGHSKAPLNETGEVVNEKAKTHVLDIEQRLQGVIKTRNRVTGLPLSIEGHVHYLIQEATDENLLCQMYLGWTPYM

The test addresses T1, full-length ATR (Homo sapiens, UniProt Q13535).
T1 construct: in the presence of 5 nM full-length ATR
Briefly: ATR Inhibition Assay (radioactive-phosphate incorporation). The test is classed as biochemical. The note with it: Ki(app); 5 nM full-length ATR, 10 μM ATP, 800 μM target peptide, 25° C. In outline:
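Buffer was 50 mM Tris/HCl pH 7.5, 10 mM MgCl2, 1 mM DTT, with 5 nM enzyme, 10 μM [γ-33P]ATP and 800 μM target peptide at 25 °C. Compound was pre-incubated 10 min before ATP start, and the reaction was stopped after 24 h. Phosphocellulose filter capture; Ki(app) came from non-linear regression of background-corrected initial rates.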
With `Nc1ncc(C2=CCN(C(=O)N3CCCNCC3)CC2)nc1-c1nc2ccccc2[nH]1` [Compound I-279, (4-(5-amino-6-(1H-benzo[d]imidazol-2-yl)pyrazin-2-yl)-5,6-dihydropyridin-1(2H)-yl)(1,4-diazepan-1-yl)methanone], the Ki lay in the range of 0.1 to 1 µM.
Take `CCN1CCN(c2cnc(N)c(-c3nnc(-c4ccc(CNC)cc4)o3)n2)CC1` [Compound I-322, 5-(4-Ethylpiperazin-1-yl)-3-[5-[4-(methylaminomethyl)phenyl]-1,3,4-oxadiazol-2-yl]pyrazin-2-amine]: the Ki is 0.1 to 1 µM.
Turning to `CCS(=O)(=O)N1CC=C(c2cnc(N)c(-c3nc4ccc(F)c(F)c4[nH]3)n2)CC1` [Compound I-153, 3-(6,7-difluoro-1H-benzo[d]imidazol-2-yl)-5-(1-(ethylsulfonyl)-1,2,3,6-tetrahydropyridin-4-yl)pyrazin-2-amine], the Ki was less than 0.1 µM.
As to `CNCc1ccc(-c2nnc(-c3nc(N4CCC[C@@H]4C)cnc3N)o2)cc1` [Compound I-361, 3-[5-[4-(Methylaminomethyl)phenyl]-1,3,4-oxadiazol-2-yl]-5-[(2S)-2-methylpyrrolidin-1-yl]pyrazin-2-amine], the Ki was in the range of 0.1 to 1 µM.
As for `CC(=O)N[C@H]1CCN(c2cnc(N)c(-c3nc4ccc(C)cc4[nH]3)n2)C1` [Compound I-4, (S)-N-(1-(5-amino-6-(6-methyl-1H-benzo[d]imidazol-2-yl)pyrazin-2-yl)pyrrolidin-3-yl)ethanamide], the figure is 0.1 to 1 µM; as for `Nc1ncc(N2CCN(CC(=O)N3CCOCC3)CC2)nc1-c1nnc(-c2ccccc2)o1` [Compound I-303, 2-[4-[5-amino-6-(5-phenyl-1,3,4-oxadiazol-2-yl)pyrazin-2-yl]piperazin-1-yl]-1-morpholino-ethanone], 0.1 to 1 µM; as for `Nc1ncc(N2CCN(S(=O)(=O)c3ccsc3)CC2)nc1-c1nnc(-c2ccccc2)o1` [Compound I-98, 3-(5-phenyl-1,3,4-oxadiazol-2-yl)-5-(4-(thiophen-3-ylsulfonyl)piperazin-1-yl)pyrazin-2-amine], 0.1 to 1 µM.
With `Nc1ncc(C2=CCN(S(=O)(=O)Cc3ccccc3)CC2)nc1-c1nnc(-c2ccccc2)o1` [Compound I-100, 5-(1-(benzylsulfonyl)-1,2,3,6-tetrahydropyridin-4-yl)-3-(5-phenyl-1,3,4-oxadiazol-2-yl)pyrazin-2-amine], the Ki was less than 0.1 µM.
Regarding `COCCOC(=O)N1CC=C(c2cnc(N)c(-c3nnc(-c4ccccc4)o3)n2)CC1` [Compound I-224, 2-methoxyethyl 4-(5-amino-6-(5-phenyl-1,3,4-oxadiazol-2-yl)pyrazin-2-yl)-5,6-dihydropyridine-1(2H)-carboxylate], the Ki is less than 0.1 µM.
The figure for `Cc1cccc(C)c1C(=O)N1CCN(c2cnc(N)c(-c3nnc(-c4ccccc4)o3)n2)CC1` [Compound I-258, (4-(5-amino-6-(5-phenyl-1,3,4-oxadiazol-2-yl)pyrazin-2-yl)piperazin-1-yl)(2,6-dimethylphenyl)methanone] is 0.1 to 1 µM; for `Nc1ncc(C2=CCN(C(=O)N3CCCCC3)CC2)nc1-c1nc2ccccc2[nH]1` [Compound I-249, (4-(5-amino-6-(1H-benzo[d]imidazol-2-yl)pyrazin-2-yl)-5,6-dihydropyridin-1(2H)-yl)(piperidin-1-yl)methanone] it is 0.1 to 1 µM.
In the case of `Nc1ncc(N2CCN(C(=O)C3CCCC3)CC2)nc1-c1nnc(-c2ccccc2)o1` [Compound I-194, (4-(5-amino-6-(5-phenyl-1,3,4-oxadiazol-2-yl)pyrazin-2-yl)piperazin-1-yl)(cyclopentyl)methanone], the Ki was 0.1 to 1 µM.
As to `Nc1ncc(C2=CCN(C(=O)CCC(=O)O)CC2)nc1-c1nc2ccccc2[nH]1` [Compound I-324, 4-(4-(5-Amino-6-(1H-benzo[d]imidazol-2-yl)pyrazin-2-yl)-5,6-dihydropyridin-1(2H)-yl)-4-oxobutanoic acid], the Ki lay within 0.1 to 1 µM.
As for `NCCS(=O)(=O)N1CC=C(c2cnc(N)c(-c3nc4ccccc4[nH]3)n2)CC1` [Compound I-313, 5-(1-(2-Aminoethylsulfonyl)-1,2,3,6-tetrahydropyridin-4-yl)-3-(1H-benzo[d]imidazol-2-yl)pyrazin-2-amine], the figure is 0.1 to 1 µM.
In the case of `CCS(=O)(=O)N1CCN(c2cnc(N)c(-c3noc(C)n3)n2)CC1` [Compound I-38, 5-(4-(ethylsulfonyl)piperazin-1-yl)-3-(5-methyl-1,2,4-oxadiazol-3-yl)pyrazin-2-amine], the Ki lay within 1 to 10 µM.
In the case of `CC#CCOC(=O)N1CC=C(c2cnc(N)c(-c3nnc(-c4ccccc4)o3)n2)CC1` [Compound I-115, but-2-ynyl 4-(5-amino-6-(5-phenyl-1,3,4-oxadiazol-2-yl)pyrazin-2-yl)-5,6-dihydropyridine-1(2H)-carboxylate], the Ki is less than 0.1 µM.
With `COCCOC(=O)N1CC=C(c2cnc(N)c(-c3nc4ccccc4[nH]3)n2)CC1` [Compound I-243, 2-methoxyethyl 4-(5-amino-6-(1H-benzo[d]imidazol-2-yl)pyrazin-2-yl)-5,6-dihydropyridine-1(2H)-carboxylate], the Ki lay within 0.1 to 1 µM.
Consider `Nc1ncc(N2CC[C@H](N)C2)nc1-c1nc2ccccc2[nH]1` [Compound I-39, (S)-5-(3-aminopyrrolidin-1-yl)-3-(1H-benzo[d]imidazol-2-yl)pyrazin-2-amine], for which the Ki fell in the range of 1 to 10 µM.
In the case of `Nc1ncc(N2CC[C@H](NC(=O)c3ccccn3)C2)nc1-c1nc2ccccc2[nH]1` [Compound I-193, (S)-N-(1-(5-amino-6-(1H-benzo[d]imidazol-2-yl)pyrazin-2-yl)pyrrolidin-3-yl)pyridine-2-carboxamide], the Ki was 0.1 to 1 µM.
Consider `Nc1ncc(N2CCN(S(=O)(=O)Cc3ccccc3)CC2)nc1-c1nc2ccccc2[nH]1` [Compound I-106, 3-(1H-benzo[d]imidazol-2-yl)-5-(4-(benzylsulfonyl)piperazin-1-yl)pyrazin-2-amine], for which the Ki was in the range of 0.1 to 1 µM.
Regarding `COC(=O)N1CCN(c2cnc(N)c(C(=O)Nc3ccccn3)n2)CC1` [Compound I-242, methyl 4-(5-amino-6-(pyridin-2-ylcarbamoyl)pyrazin-2-yl)piperazine-1-carboxylate], the Ki fell in the range of 1 to 10 µM.
As for `Cc1ccc2nc(-c3nc(N4CCC(C(N)=O)CC4)cnc3N)[nH]c2c1` [Compound I-14, 1-(5-amino-6-(6-methyl-1H-benzo[d]imidazol-2-yl)pyrazin-2-yl)piperidine-4-carboxamide], the Ki lay in the range of 1 to 10 µM.
As for `CCS(=O)(=O)N1CC=C(c2cnc(N)c(-c3nc4cc(C)c(C)cc4[nH]3)n2)CC1` [Compound I-154, 3-(5,6-dimethyl-1H-benzo[d]imidazol-2-yl)-5-(1-(ethylsulfonyl)-1,2,3,6-tetrahydropyridin-4-yl)pyrazin-2-amine], the figure is 0.1 to 1 µM; as for `CC(=O)NC1CCN(c2cnc(N)c(-c3nc4ccc(C)cc4[nH]3)n2)CC1` [Compound I-43, N-(1-(5-amino-6-(6-methyl-1H-benzo[d]imidazol-2-yl)pyrazin-2-yl)piperidin-4-yl)ethanamide], 0.1 to 1 µM.
In the case of `Nc1ncc(N2CCN(C(=O)Cc3ccccc3)CC2)nc1C(=O)Nc1ccccn1` [Compound I-141, 3-amino-6-(4-(2-phenylethanoyl)piperazin-1-yl)-N-(pyridin-2-yl)pyrazine-2-carboxamide], the Ki lay in the range of 1 to 10 µM.
The figure for `CCOC(=O)N1CCN(c2cnc(N)c(-c3nnc(-c4ccccc4)o3)n2)CC1` [Compound I-232, ethyl 4-(5-amino-6-(5-phenyl-1,3,4-oxadiazol-2-yl)pyrazin-2-yl)piperazine-1-carboxylate] is 0.1 to 1 µM; for `CNCc1ccc(-c2nnc(-c3nc(C4CC4C(=O)NCC(O)CO)cnc3N)o2)cc1` (stereo not shown) [Compound I-376, 2-[5-Amino-6-[5-[4-(methylaminomethyl)phenyl]-1,3,4-oxadiazol-2-yl]pyrazin-2-yl]-N-(2,3-dihydroxypropyl)cyclopropanecarboxamide] it is 0.1 to 1 µM; for `Nc1ncc(N2CCN(C(=O)C3CCCC3)CC2)nc1C(=O)Nc1ccccn1` [Compound I-144, 3-amino-6-(4-(cyclopentanecarbonyl)piperazin-1-yl)-N-(pyridin-2-yl)pyrazine-2-carboxamide] it is 0.1 to 1 µM.
As for `Nc1ncc(C2=CCN(C(=O)N3CCCC3)CC2)nc1-c1nnc(-c2ccccc2)o1` [Compound I-226, (4-(5-amino-6-(5-phenyl-1,3,4-oxadiazol-2-yl)pyrazin-2-yl)-5,6-dihydropyridin-1(2H)-yl)(pyrrolidin-1-yl)methanone], the Ki is less than 0.1 µM.
The figure for `CC(C)S(=O)(=O)N1CCN(c2cnc(N)c(-c3nc4ccccc4[nH]3)n2)CC1` [Compound I-97, 3-(1H-benzo[d]imidazol-2-yl)-5-(4-(isopropylsulfonyl)piperazin-1-yl)pyrazin-2-amine] is 0.1 to 1 µM; for `CC(C)C(=O)N1CCN(c2cnc(N)c(-c3nc4ccccc4[nH]3)n2)CC1` [Compound I-199, 1-(4-(5-amino-6-(1H-benzo[d]imidazol-2-yl)pyrazin-2-yl)piperazin-1-yl)-2-methylpropan-1-one] it is 1 to 10 µM.
Take `CCS(=O)(=O)N[C@@H]1C2CN(c3cnc(N)c(-c4nnc(-c5ccc(CNC)cc5)o4)n3)C[C@@H]21` (stereo partly shown) [Compound I-369]: the Ki is less than 0.1 µM.
Turning to `Nc1ncc(N2CCN(C(=O)C3CCCCC3)CC2)nc1C(=O)Nc1ccccn1` [Compound I-256, 3-amino-6-(4-(cyclohexanecarbonyl)piperazin-1-yl)-N-(pyridin-2-yl)pyrazine-2-carboxamide], the Ki was 0.1 to 1 µM.
As for `CCS(=O)(=O)N1CC=C(c2cnc(N)c(C(=O)Nc3cccnc3OC)n2)CC1` [Compound I-165, 3-amino-6-(1-(ethylsulfonyl)-1,2,3,6-tetrahydropyridin-4-yl)-N-(2-methoxypyridin-3-yl)pyrazine-2-carboxamide], the figure is less than 0.1 µM.
